Where two headings read alike, the source gives them in different places.
Columns and labels:
[1] = target: T1, LTD4 receptors (Cavia porcellus, UniProt Q2NNR5); assay: Antagonism of LTD4 (guinea pig ileum and trachea, pA2); details: *Estimated; negative log of KB; antagonist 30 minute incubation
T1 construct: A section of terminal ileum was removed, the lumen cleaned, and the tissue divided into 2.5 cm segments; from tissue; host or cells: ileum and trachea of guinea pig (ileum: male Hartley)
T1 sequence (Q2NNR5 1-340): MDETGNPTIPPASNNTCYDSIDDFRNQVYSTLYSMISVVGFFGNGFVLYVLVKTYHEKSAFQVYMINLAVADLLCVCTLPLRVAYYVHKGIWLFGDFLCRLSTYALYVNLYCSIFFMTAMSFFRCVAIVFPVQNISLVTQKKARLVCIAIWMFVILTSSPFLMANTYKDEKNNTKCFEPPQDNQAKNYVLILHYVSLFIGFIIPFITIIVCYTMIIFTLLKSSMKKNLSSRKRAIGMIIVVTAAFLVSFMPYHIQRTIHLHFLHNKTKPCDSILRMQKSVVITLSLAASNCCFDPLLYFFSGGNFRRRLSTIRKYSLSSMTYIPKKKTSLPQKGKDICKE
Experimental: Male, Hartley guinea pigs weighing 200-450 grams were killed by decapitation. A section of terminal ileum was removed, the lumen cleaned, and the tissue divided into 2.5 cm segments. The ilea were mounted in 10 ml tissue baths containing Krebs-bicarbonate solution of the following composition in mmoles/liter: KCl, 4.6; CaCl2 ·2H2 O, 1.2; KH2 PO4, 1.2; MgSO4 ·7H2O, 1.2; NaCl, 118.2; NaHCO3, 24.8; and dextrose, 10.0. The bath fluid was maintained at 37° C. and aerated with 95 percent oxygen and 5 percent CO2 In addition, the buffer contained 1×10^-6 M atropine to reduce ileal spontaneous activity. Isometric measurements were made with a Grass FT03C. force-displacement transducer and recorded on a Grass polygraph as change in grams of force. A passive force of 0.5 g was applied to the tissues. After an appropriate equilibration period, single submaximal control responses to pure LTD4 were obtained. Following a five minute exposure of the ileum to an experimental drug, the control concentration of LTD4 was added to the tissue bath. The response of the ileum to LTD4 in the presence of the drug was compared to the response in the absence of the drug.
A more detailed analysis of LTD4 antagonism was then made. In these experiments, cumulative concentration-response curves were obtained to LTD4 in guinea pig ileum and trachea. This was followed by a 30 minute incubation with various concentrations of the experimental drug. The concentration response curve to LTD4 was then repeated in the presence of the antagonist. Only one concentration of antagonist was used on a single tissue. KB values were calculated by the method of Furchgott [Ann. N.Y. Acad. Sci., 139, 553 (1967)] using the following equation. [formula]
Dose ratio refers to the concentration of agonist required to elicit 50 percent of the maximal response ED50) in the presence of the antagonist divided by the ED50 in the absence of the antagonist.

[2] = target: T2, specific receptor on the membrane of human neutrophils (leukotriene B4) (Homo sapiens, UniProt Q15722); assay: Inhibition of Binding of ^3 H-LTB4 to Peripheral Human Neutrophils; details: read-out: LTB4 Binding Inhibition
T2 construct: Freshly-prepared buffy coat layers from two individuals were obtained from a local blood donor center; endogenous in cells; host or cells: intact human peripheral blood neutrophils from buffy coats of two donors
T2 sequence (Q15722 whole entry): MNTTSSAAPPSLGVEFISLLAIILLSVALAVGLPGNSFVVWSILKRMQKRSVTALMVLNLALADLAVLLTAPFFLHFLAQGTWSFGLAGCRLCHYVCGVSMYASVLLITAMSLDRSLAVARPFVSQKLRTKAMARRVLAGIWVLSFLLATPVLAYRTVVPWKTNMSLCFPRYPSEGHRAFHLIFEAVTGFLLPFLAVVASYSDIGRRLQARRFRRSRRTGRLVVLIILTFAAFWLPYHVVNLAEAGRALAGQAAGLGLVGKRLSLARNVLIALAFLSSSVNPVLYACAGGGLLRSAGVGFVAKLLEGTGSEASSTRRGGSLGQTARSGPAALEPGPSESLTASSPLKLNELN
Experimental: Cells used in the assay were isolated by standard techniques of centrifugation on Ficoll-Hypaque, dextran 70 sedimentation and hypotonic lysis. The following procedure was used. Freshly-prepared buffy coat layers from two individuals were obtained from a local blood donor center. The cells were mixed and diluted to 484 ml with phosphate buffered saline containing heparin (10 units/ml) and heat-inactivated calf serum (5%). This was divided into 20 ml aliquots and the aliquots layered on top of Ficoll-Paque (12 ml). The material was then centrifuged at 500 g for 40 minutes at room temperature. The resulting upper layer of platelets and mononuclear cells was discarded. The lower layer containing erythrocytes and neutrophils was retained. Buffer was added (1 ml per 4 ml of lower layer) and the suspension mixed. For each milliliter of this mixture, 0.33 ml of 6% Macrodex was added. After stirring, the cells were allowed to sediment for 1 hour at 37° C. The resulting erythrocyte pellet was discarded and the neutrophil enriched supernatant fluid centrifuged at 500 g for 10 minutes at 4° C. Erythrocytes still present in this cell pellet were lysed by incubating the cells with 5-8 ml ice-cold distilled water for 30-45 seconds. Subsequently, the volume was made up to 50 ml by addition of ice-cold buffer and the cells resuspended. The suspension was then centrifuged at 300 g for 10 minutes at 4° C. The cells were finally resuspended at a cell density of 2×10^7 cells/ml in the assay buffer This buffer consisted of Hanks' balanced salt solution and 0.1% ovalbumin (pH 7.3).
The amount of bound ^3 H-LTB4 was then measured and compared with the amount bound in the absence of test compound. The assay was carried out in microcentrifuge tubes by adding first 10 μl test compound dissolved in DMSO, followed by adding 20 μl ^3 H-LTB4 diluted in assay buffer, and finally adding 500 μl of the cell suspension. At the end of the 10 minutes incubation, 300 μl of a mixture of dibutyl and dinonyl phthalate (7:2) were added and the tubes centrifuged for 2 minutes in a microcentrifuge. The radioactivity bound to the cell pellet was measured by scintillation spectroscopy. Appropriate corrections for nonspecific bonding of ^3 H-LTB4 were made.

[3] = tested on: LTB4 induced cell aggregation (neutrophils); assay: LTB4 Induced Aggregation Assay (neutrophils); type: cell-based, guinea pig; details: Cavia porcellus, Neutrophil; for inhibition at 10 µM: drug concentration 10^-5 M; for inhibition at 1 µM: drug concentration 10^-6 M; for inhibition at 0.1 µM: drug concentration 10^-7 M
Experimental: Neutrophils were elicited by intraperitoneally injecting 20 ml of Dulbecco's calcium and magnesium deficient phosphate buffered saline (PBS) containing 2% oyster glycogen into each of two male Hartley guinea pigs. Eighteen hours later, cells accumulating in the peritoneal cavity were harvested by washing the peritoneum with approximately 100 ml of PBS containing 10 units/ml of heparin. The cells were centrifuged at 200 g for 8 min. and the supernatant fluid discarded. Erythrocytes present in the pellet were lyzed by vigorous agitation of the cells in 9 ml of ice-cold distilled water for approximately 30 seconds. Physiological osmolarity was restored by adding 1.5 ml of 0.6 M KCl. Twelve milliliters of PBS were added and the resuspended cells centrifuged at 200 g for 8 min. at 4°. The pellet was resuspended in 5 ml PBS. The cell concentration was determined and additional buffer added to make the concentration […]; cells per ml.
The aggregation assay was carried out by measuring the amount of LTB4 induced cell aggregation with a Payton single channel aggregometer, model 300B. The apparatus was calibrated by placing a cuvette containing the cell suspension in it and adjusting the zero knob so that the recorder pen rested at 1 mV. A cuvette containing 20% less cells was then inserted into the aggregometer and the output knob adjusted so that the recorder pen rested at 9 mV. With these settings an 8 mV change causes the recorder pen to move 200 mm. When conducting an assay, 0.5 ml of cell suspension (5×10^6 cells) was added to each cuvette. Five microliters of a solution of test compound were then added. Most compounds were initially dissolved in DMSO at 1×10^-2 M and then diluted appropriately with PBS so that the test compound concentration was 1×10^-5 to 1×10^-7 M and the test DMSO concentration was 0.1% or less. A few of the more water insoluble compounds were first dissolved in DMSO at 1 to 6×10^-3 M and then diluted appropriately with PBS. The test concentration of DMSO was never higher than 1%. After a 2 minute equilibration period of cells and test compound, 5 μl of a solution containing CaCl2 (100 mM) and MgCl2 (50 mM) were added. One minute later, 5 μ l of PBS containing LTB4 (3×10^-7 M) were added. The change occurring in the amount of light transmitted during the subsequent minute was measured. […] During a typical experiment, several measurements of the amount of aggregation induced by LTB4 were made and an average value determined. The effect of a test compound on this aggregation was determined by the following formula: [formula]

[4] = drug concentration 10^-5 M, 0.1-0.2 nM ^3 H-LTB4, 10 minutes at 4° C
[5] = drug concentration 10^-6 M, 0.1-0.2 nM ^3 H-LTB4, 10 minutes at 4° C
[6] = drug concentration 10^-7 M, 0.1-0.2 nM ^3 H-LTB4, 10 minutes at 4° C

Kb [1] [nM]	inhibition at 10 µM [2, 4] [%]	inhibition at 1 µM [2, 5] [%]	inhibition at 0.1 µM [2, 6] [%]	SMILES	inhibition at 10 µM [3] [%]	inhibition at 1 µM [3] [%]	inhibition at 0.1 µM [3] [%]	inhibition at 10 µM [2] [%]	inhibition at 0.1 µM [2] [%]	inhibition at 1 µM [2] [%]
158				CCCCCCCCCCOc1ccc(C(=O)c2cccc(C(=O)OCC)c2)cc1CCCC(=O)OCC [Example 7, 2-(Decyloxy)-5-[3-(ethoxycarbonyl)benzoyl]benzenebutanoic acid, ethyl ester]						
1410	74	23		CCCCCCCCCCOc1ccc(C(=O)c2cccc(C(=O)O)c2)c(CC(=O)O)c1 [Example 21, 2-(3-Carboxybenzoyl)-5-(decyloxy)benzeneacetic acid]						
	87	52	4	CCCCCCCCCCOc1ccc(C(=O)c2cccc(C(=O)O)c2)cc1CCCC(=O)O [Example 23, 5-(3-Carboxybenzoyl)-2-(decyloxy)benzenebutanoic acid]	92	46				
398	93	28		CCCCCCCCCCOc1ccc(C(=O)c2cccc(-c3nnn[nH]3)c2)cc1CC(=O)O [Example 24, 2-(Decyloxy)-5-[3-(1H-tetrazol-5-yl)benzoyl]benzeneacetic acid]						
631				CCCCCCCCCCOc1ccc(C(=O)c2cccc(Cc3nnn[nH]3)c2)cc1CCC(=O)O [Example 25, 2-(Decyloxy)-5-[3-(1H-tetrazol-5-ylmethyl)benzoyl]benzenepropanoic acid]						
1910				CCCCCCCCCCOc1ccc(C(=O)Cc2ccccc2C(=O)O)cc1CCC(=O)O [Example 34, 5-[(2-Carboxyphenyl)acetyl]-2-(decyloxy)benzenepropanoic acid]						
	91	55	13	CCCCCCCCCCOc1ccc(C(O)c2cccc(C(=O)O)c2)cc1CCC(=O)O (stereo not drawn) [Example 46, 5-[(3--Carboxyphenyl)hydroxymethyl]-2-(decyloxy)benzenepropanoic acid]		73	7			
	59	2		CCCCCCCCCCOc1ccc(C(O)c2ccc(C(=O)O)cc2)cc1CC(=O)O (stereo not drawn) [Example 47, 5-[(4-Carboxyphenyl)hydroxymethyl]-2-(decyloxy)benzeneacetic acid]	80	50	2			
	71	37	-3	C=C(c1cccc(C(=O)O)c1)c1ccc(OCCCCCCCCCC)c(CCC(=O)O)c1 [Example 54, 5-[1-(3-Carboxyphenyl)ethenyl]-2-(decyloxy)benzenepropanoic acid]		88	12			
575				CCOC(=O)CCc1cc(C(=O)c2cccc(C(=O)OCC)c2)ccc1OCCCCCCc1ccc(Cl)cc1 [Example 66, 2-{[6-(4-Chlorophenyl)hexyl]oxy}-5-[3-(ethoxycarbonyl)benzoyl]benzenepropanoic acid, ethyl ester]						
				COc1ccc(C=CCCCCOc2ccc(C(=O)c3cccc(C(=O)O)c3)cc2CCC(=O)O)cc1 [Example 79, 5-(3-Carboxybenzoyl)-2-{[6-(4-methoxyphenyl)-5-hexenyl]oxy}benzenepropanoic acid]	92	87	46	100	92	97
	106	91	42	O=C(O)CCc1cc(C(=O)c2cccc(C(=O)O)c2)ccc1OCCCCCCc1ccc(Cl)cc1 [Example 81, 2-{[6-(4-Chlorophenyl)hexyl]oxy}-5-(3-carboxybenzoyl)benzenepropanoic acid]	76	63	8			
	98	96	90	C[S+]([O-])c1ccc(C=CCCCCOc2ccc(C(=O)c3cccc(C(=O)O)c3)cc2CCC(=O)O)cc1 (stereo not drawn) [Example 90, 5-(3-Carboxybenzoyl)-2-{[6-(4-methylsulfinylphenyl)-5-hexenyl]oxy}benzenepropanoic acid]	85	79	9			

SMILES	Kb [1] [nM]	inhibition at 10 µM [2, 4] [%]	inhibition at 1 µM [2, 5] [%]	inhibition at 0.1 µM [2, 6] [%]	inhibition at 10 µM [3] [%]	inhibition at 1 µM [3] [%]	inhibition at 0.1 µM [3] [%]	inhibition at 10 µM [2] [%]	inhibition at 0.1 µM [2] [%]	inhibition at 1 µM [2] [%]
O=C(O)CCc1cc(C(=O)c2cccc(C(=O)O)c2)ccc1OCCCCCCc1ccccc1 [Example 75, 5-(3-Carboxybenzoyl)-2-[6-(phenylhexyl)-oxy]benzenepropanoic acid]			82	36	93	69	15	97		

Reference: patent publication US5171882A, “Leukotriene antagonists” (Eli Lilly and Company, priority 1990, dated 1992)
